This note sets out measurements from US6472391B2, “Nitrogen-containing heterocyclic compounds” (Millennium Pharmaceuticals, Inc., priority 1996, dated 2002).

Usually melting point stands for the temperature, or range, at which the solid turns liquid. `O=C(Nc1ccc(Oc2ccccc2)cc1)N1CCN(c2ccnc3ccc(Cl)cc23)CC1` [Compound 399, 4-(6-Chloro-4-quinolyl)-N-(4-phenoxyphenyl)-1-piperazinecarboxamide] had a melting point of 188 to 189 °C.
The value for `COc1cc2ncnc(N3CCN(C(=O)Nc4ccc([N+](=O)[O-])cc4Cl)CC3)c2cc1OC` [Compound 82, N-(2-Chloro-4-nitrophenyl)-4-(6,7-dimethoxy-4-quinazolinyl)-1-piperazinecarboxamide] was 194 to 195 °C; that for `COc1cc2ncnc(N3CCN(C(=O)NCc4ccc(Br)cc4)CC3)c2cc1OC` [Compound 184, N-(4-Bromobenzyl)-4-(6,7-dimethoxy-4-quinazolinyl)-1-piperazinecarboxamide] was 211 to 212 °C; that for `COc1cc2ncnc(N3CCN(C(=S)Nc4ccc(N=Nc5ccc(N(C)C)cc5)cc4)CC3)c2cc1OC` [Compound 74, 4-(6,7-Dimethoxy-4-quinazolinyl)-N-[4-(4-dimethylaminophenylazo)phenyl]-1-piperazinethiocarboxamide] was 148 to 149 °C.
`COc1cc2ncnc(N3CCN(C(=O)Nc4ccsc4)CC3)c2cc1OC` [Compound 257, 4-(6,7-Dimethoxy-4-quinazolinyl)-N-(3-thienyl)-1-piperazinecarboxamide] showed a melting point of 239 to 241 °C.
For `CC(C)c1ccc(NC(=O)N2CCN(c3ncnc4ccc(I)cc34)CC2)cc1` [Compound 304, 4-(6-Iodo-4-quinazolinyl)-N-(4-isopropylphenyl)-1-piperazinecarboxamide] the value was 211 to 212 °C; for `CCn1c(=O)n(CC)c2cc3c(N4CCN(C(=O)Nc5ccc(Oc6ccccc6)cc5)CC4)nncc3cc21` [Compound 419, 4-(1,3-Diethyl-1,3-dihydro-2-oxo-2H-imidazo[4,5-g]phthalazin-5-yl)-N-(4-phenoxyphenyl)-1-piperazinecarboxamide], 125 to 128 °C; for `COc1ccc2c(N3CCN(C(=S)NCc4cccnc4)CC3)ncnc2c1OC.Cl`, 208 to 209 °C.
The value for `COc1ccc(NC(=O)N2CCN(c3ncnc4cc(OC)c(OC)cc34)CC2)cc1` [Compound 56, 4-(6,7-Dimethoxy-4-quinazolinyl)-N-(4-methoxyphenyl)-1-piperazinecarboxamide] was 221 to 223 °C; that for `COc1cc2ncnc(N3CCN(C(=S)Nc4ccccn4)CC3)c2cc1OC` [Compound 262, 4-(6,7-Dimethoxy-4-quinazolinyl)-N-(2-pyridyl)-1-piperazinethiocarboxamide] was 208 to 210 °C.
For `CCn1c(=O)[nH]c2cc3c(N4CCN(C(=O)Nc5ccc(Oc6ccccc6)cc5)CC4)ncnc3cc21` [Compound 123, 4-(3-Ethyl-1,3-dihydro-2-oxo-2H-imidazo[4,5-g]quinazolin-8-yl)-N-(4-phenoxyphenyl)-1-piperazinecarboxamide] the value was 248 to 251 °C; for `CCOC(=O)c1cnc2cc(OC)c(OC)cc2c1N1CCN(C(=S)NCc2ccccc2)CC1` [Compound 409, N-Benzyl-4-(6,7-dimethoxy-3-ethoxycarbonyl-4-quinolyl)-1-piperazinethiocarboxamide], 174 to 175 °C.
`COc1cccc(CNC(=S)N2CCN(c3ncnc4cc(OC)c(OC)cc34)CC2)c1` [Compound 197, 4-(6,7-Dimethoxy-4-quinazolinyl)-N-(3-methoxybenzyl)-1-piperazinethiocarboxamide] displayed a melting point of 146 to 147 °C.
`CCOC(=O)c1cccc(NC(=O)N2CCN(c3ncnc4cc(OC)c(OC)cc34)CC2)c1` [Compound 248, 4-(6,7-Dimethoxy-4-quinazolinyl)-N-(3-ethoxycarbonylphenyl)-1-piperazinecarboxamide] gave a melting point of 187 to 188 °C.
In turn, `CCOC(=O)c1ccc(NC(=O)N2CCN(c3ncnc4cc(OC)c(OC)cc34)CC2)cc1` [Compound 89, 4-(6,7-dimethoxy-4-quinazolinyl)-N-(4-ethoxycarbonylphenyl)-1-piperazinecarboxamide] came in with a melting point of 242 to 246 °C.
For `COc1cc2ncnc(N3CCN(C(=S)Nc4ccc(OCc5ccccc5)cc4)CC3)c2cc1OC` [Compound 63, N-(4-Benzyloxyphenyl)-4-(6,7-dimethoxy-4-quinazolinyl)-1-piperazinethiocarboxamide] the value was 103 to 105 °C; for `COc1ccc2ncnc(N3CCN(C(=S)NCc4cccnc4)CC3)c2c1` [Compound 310, 4-(6-Methoxy-4-quinazolinyl)-N-(3-picolyl)-1-piperazinethiocarboxamide], 139 to 140 °C.
For `S=C(NCc1ccccc1)N1CCN(c2ccnc3ccc(Cl)cc23)CC1` [Compound 400, N-Benzyl-4-(6-chloro-4-quinolyl)-1-piperazinethiocarboxamide] the value was 173 to 174 °C.
The value for `S=C(NCc1ccc(Cl)cc1)N1CCN(c2ccnc3ccc(Cl)cc23)CC1` [Compound 401, N-(4-Chlorobenzyl)-4-(6-chloro-4-quinolyl)-1-piperazinethiocarboxamide] was 89 to 90 °C; that for `COc1cc2ncnc(N3CCN(C(=O)NCCc4ccc(Br)cc4)CC3)c2cc1OC` [Compound 120, N-[2-(4-Bromophenyl)ethyl]-4-(6,7-dimethoxy-4-quinazolinyl)-1-piperazinecarboxamide] was 174 to 175 °C.
Turning to `Fc1ccc2ncnc(N3CCN(C(=S)NCc4cccnc4)CC3)c2c1` [Compound 299, 4-(6-Fluoro-4-quinazolinyl)-N-(3-picolyl)-1-piperazinethiocarboxamide], the melting point fell in the range of 170 to 172 °C.
The value for `COc1cc2ncnc(N3CCN(C(=S)Nc4ccc(Br)cc4)CC3)c2cc1OC` [Compound 182, N-(4-Bromophenyl)-4-(6,7-dimethoxy-4-quinazolinyl)-1-piperazinethiocarboxamide] was 170 to 171 °C; that for `O=C(Nc1ccc(Oc2ccccc2)cc1)N1CCN(c2ncnc3ccc(I)cc23)CC1` [Compound 305, 4-(6-Iodo-4-quinazolinyl)-N-(4-phenoxyphenyl)-1-piperazinecarboxamide] was 184 to 185 °C; that for `COc1ccc2ncnc(N3CCN(C(=O)Nc4ccc(Oc5ccccc5)cc4)CC3)c2c1` [Compound 307, 4-(6-Methoxy-4-quinazolinyl)-N-(4-phenoxyphenyl)-1-piperazinecarboxamide] was 139 to 140 °C.
In turn, `COc1cc2ncnc(N3CCN(C(=S)NCc4ccc(Cl)cc4)CC3)c2cc1OC` [Compound 42, N-(4-Chlorobenzyl)-4-(6,7-dimethoxy-4-quinazolinyl)-1-piperazinethiocarboxamide] yielded a melting point of 218 to 220 °C.
For `O=C(Nc1ccc(Oc2ccccc2)cc1)N1CCN(c2nncc3ccccc23)CC1` [Compound 414, N-(4-Phenoxyphenyl)-4-(1-phthalazinyl)-1-piperazinecarboxamide] the value was 202 to 203 °C.
For `COc1ccc(CCNC(=S)N2CCN(c3ncnc4cc(OC)c(OC)cc34)CC2)cc1OC` [Compound 206, N-[2-(3,4-Dimethoxyphenyl)ethyl]-4-(6,7-dimethoxy-4-quinazolinyl)-1-piperazinethiocarboxamide] the value was 98 to 100 °C.
